Laboratory results as given in patent US20260262643A1, “HERBICIDAL BENZOXAZINES” (FMC CORPORATION, priority 2022, published 2026).

Key:
galium = assay: Test A postemergence; assay type: in vivo, Galium aparine
Outline: (§1)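 Loam/sand soil; pre-em directed soil spray at planting, post-em spray at 1–2 leaf (2–10 cm). Compound in non-phytotoxic solvent + surfactant. Greenhouse 10 d; visual injury vs untreated, 0 = no effect, 100 = complete control.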

blackgrass [1] = assay: Test A postemergence; assay type: in vivo, Alopecurus myosuroides
Outline: as §1

kochia [2] = assay: Test A postemergence; assay type: in vivo, Bassia scoparia
Outline: as §1

oat, wild [3] = assay: Test A postemergence; assay type: in vivo, Avena fatua
Outline: as §1

foxtail, giant [4] = assay: Test A postemergence; assay type: in vivo, Setaria faberi
Outline: as §1

pigweed, palmer [5] = assay: Test A preemergence; assay type: in vivo, Amaranthus palmeri
Outline: as §1

ryegrass, Italian [6] = assay: Test A preemergence; assay type: in vivo, Lolium multiflorum
Outline: as §1

ducksalad = assay: Test B flooded paddy test; assay type: in vivo, Heteranthera limosa; details: 250 g ai/ha, Flood, 13 days, 0 to 100 scale (0 no effect, 100 complete control)
Outline: (§2)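 Percent weed or crop control, judged by eye on a 0–100 scale 13 days post-treatment, reflects compound added to a 3 cm flood maintained over 2-leaf plants in the greenhouse. Missing entries are marked with a dash.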

wheat [7] = assay: Test A preemergence; assay type: in vivo, Triticum aestivum
Outline: as §1

goosegrass [8] = assay: Test A postemergence; assay type: in vivo, Eleusine indica
Outline: as §1

soybean [9] = assay: Test A postemergence; assay type: in vivo, Glycine max
Outline: as §1

oat, wild [10] = assay: Test A preemergence; assay type: in vivo, Avena fatua
Outline: as §1

ragweed [11] = assay: Test A preemergence; assay type: in vivo, Ambrosia artemisiifolia
Outline: as §1

ryegrass, Italian [12] = assay: Test A postemergence; assay type: in vivo, Lolium multiflorum
Outline: as §1

corn [13] = assay: Test A preemergence; assay type: in vivo, Zea mays
Outline: as §1

rice = assay: Test B flooded paddy test; assay type: in vivo, Oryza sativa; details: 250 g ai/ha, Flood, 13 days, 0 to 100 scale (0 no effect, 100 complete control)
Outline: as §2

ragweed [14] = assay: Test A postemergence; assay type: in vivo, Ambrosia artemisiifolia
Outline: as §1

goosegrass [15] = assay: Test A preemergence; assay type: in vivo, Eleusine indica
Outline: as §1

barnyardgrass = assay: Test B flooded paddy test; assay type: in vivo, Echinochloa crus-galli; details: 250 g ai/ha, Flood, 13 days, 0 to 100 scale (0 no effect, 100 complete control)
Outline: as §2

sedge, umbrella = assay: Test B flooded paddy test; assay type: in vivo, Cyperus difformis; details: 250 g ai/ha, Flood, 13 days, 0 to 100 scale (0 no effect, 100 complete control)
Outline: as §2

wheat [16] = assay: Test A postemergence; assay type: in vivo, Triticum aestivum
Outline: as §1

pigweed, palmer [17] = assay: Test A postemergence; assay type: in vivo, Amaranthus palmeri
Outline: as §1

kochia [18] = assay: Test A preemergence; assay type: in vivo, Bassia scoparia
Outline: as §1

foxtail, giant [19] = assay: Test A preemergence; assay type: in vivo, Setaria faberi
Outline: as §1

corn [20] = assay: Test A postemergence; assay type: in vivo, Zea mays
Outline: as §1

soybean [21] = assay: Test A preemergence; assay type: in vivo, Glycine max
Outline: as §1

blackgrass [22] = assay: Test A preemergence; assay type: in vivo, Alopecurus myosuroides
Outline: as §1

horseweed = assay: Test A postemergence; assay type: in vivo, Erigeron canadensis
Outline: as §1

[23] = 125 g ai/ha, postemergence, 10 days, visual injury, 0 to 100 scale (0 no effect, 100 complete control)
[24] = 500 g ai/ha, Postemergence, 0 to 100 scale
[25] = 125 g ai/ha, visual injury after 10 days, 0 to 100 scale, 0 is no effect, 100 is complete control
[26] = 500 g ai/ha, 0 to 100 scale (0 no effect, 100 complete control), 10 days
[27] = 500 g ai/ha, postemergence, 10 days, visual injury, 0 to 100 scale (0 no effect, 100 complete control)

## Cc1cccc2c1O[C@@H](C)CN2C(=O)c1cccc(-n2cnc(C3CC3)n2)c1 [Compound 54]
galium; [23]
  Plant response rating, Galium: 100
galium; [24]
  Plant response rating, Galium: 100
Blackgrass [1]; [23]
  Plant response rating, Blackgrass: 0
Blackgrass [1]; [24]
  Plant response rating, Blackgrass: 50
Kochia [2]; [23]
  Plant response rating, Kochia: 80
Kochia [2]; [24]
  Plant response rating, Kochia: 90
oat, wild [3]; [23]
  Plant response rating, Oat, Wild: 20
oat, wild [3]; [24]
  Plant response rating, Oat, Wild: 40
foxtail, giant [4]; [23]
  Plant response rating, Foxtail, Giant: 70
foxtail, giant [4]; [24]
  Plant response rating, Foxtail, Giant: 90
pigweed, palmer [5]; [25]
  Plant response rating, Pigweed, Palmer: 60
pigweed, palmer [5]; [26]
  Plant response rating, Pigweed, Palmer: 100
ryegrass, Italian [6]; [25]
  Plant response rating, Ryegrass, Italian: 70
ryegrass, Italian [6]; [26]
  Plant response rating, Ryegrass, Italian: 100
ducksalad
  Plant response rating, Ducksalad: 30
Wheat [7]; [25]
  Plant response rating, Wheat: 20
Wheat [7]; [26]
  Plant response rating, Wheat: 30
Goosegrass [8]; [23]
  Plant response rating, Goosegrass: 40
Goosegrass [8]; [24]
  Plant response rating, Goosegrass: 50
Soybean [9]; [23]
  Plant response rating, Soybean: 100
Soybean [9]; [24]
  Plant response rating, Soybean: 100
oat, wild [10]; [25]
  Plant response rating, Oat, Wild: 20
oat, wild [10]; [26]
  Plant response rating, Oat, Wild: 50
Ragweed [11]; [25]
  Plant response rating, Ragweed: 0
Ragweed [11]; [26]
  Plant response rating, Ragweed: 0
ryegrass, Italian [12]; [23]
  Plant response rating, Ryegrass, Italian: 30
ryegrass, Italian [12]; [24]
  Plant response rating, Ryegrass, Italian: 60
Corn [13]; [25]
  Plant response rating, Corn: 30
Corn [13]; [26]
  Plant response rating, Corn: 60
rice
  Plant response rating, Rice: 30
Ragweed [14]; [23]
  Plant response rating, Ragweed: 0
Ragweed [14]; [24]
  Plant response rating, Ragweed: 50
Goosegrass [15]; [25]
  Plant response rating, Goosegrass: 90
Goosegrass [15]; [26]
  Plant response rating, Goosegrass: 100
barnyardgrass
  Plant response rating, Barnyardgrass: 25
sedge, umbrella
  Plant response rating, Sedge, Umbrella: 90
Wheat [16]; [23]
  Plant response rating, Wheat: 20
Wheat [16]; [24]
  Plant response rating, Wheat: 40
pigweed, palmer [17]; [23]
  Plant response rating, Pigweed, Palmer: 50
pigweed, palmer [17]; [24]
  Plant response rating, Pigweed, Palmer: 60
Kochia [18]; [25]
  Plant response rating, Kochia: 80
Kochia [18]; [26]
  Plant response rating, Kochia: 90
foxtail, giant [19]; [25]
  Plant response rating, Foxtail, Giant: 90
foxtail, giant [19]; [26]
  Plant response rating, Foxtail, Giant: 100
Corn [20]; [23]
  Plant response rating, Corn: 30
Corn [20]; [24]
  Plant response rating, Corn: 40
Soybean [21]; [25]
  Plant response rating, Soybean: 0
Soybean [21]; [26]
  Plant response rating, Soybean: 40
Blackgrass [22]; [25]
  Plant response rating, Blackgrass: 40
Blackgrass [22]; [26]
  Plant response rating, Blackgrass: 80
horseweed; [23]
  Plant response rating, Horseweed: 0
horseweed; [24]
  Plant response rating, Horseweed: 20

## Cc1cccc2c1O[C@@H](C)CN2C(=O)c1cccc(-n2cncn2)c1F [Compound 53]
galium; [23]
  Plant response rating, Galium: 0
galium; [24]
  Plant response rating, Galium: 0
Blackgrass [1]; [23]
  Plant response rating, Blackgrass: 0
Blackgrass [1]; [24]
  Plant response rating, Blackgrass: 20
Kochia [2]; [23]
  Plant response rating, Kochia: 0
Kochia [2]; [24]
  Plant response rating, Kochia: 10
oat, wild [3]; [23]
  Plant response rating, Oat, Wild: 0
oat, wild [3]; [24]
  Plant response rating, Oat, Wild: 0
foxtail, giant [4]; [23]
  Plant response rating, Foxtail, Giant: 0
foxtail, giant [4]; [24]
  Plant response rating, Foxtail, Giant: 10
pigweed, palmer [5]; [25]
  Plant response rating, Pigweed, Palmer: 0
pigweed, palmer [5]; [26]
  Plant response rating, Pigweed, Palmer: 0
ryegrass, Italian [6]; [25]
  Plant response rating, Ryegrass, Italian: 30
ryegrass, Italian [6]; [26]
  Plant response rating, Ryegrass, Italian: 70
ducksalad
  Plant response rating, Ducksalad: 0
Wheat [7]; [25]
  Plant response rating, Wheat: 0
Wheat [7]; [26]
  Plant response rating, Wheat: 10
Goosegrass [8]; [23]
  Plant response rating, Goosegrass: 20
Goosegrass [8]; [24]
  Plant response rating, Goosegrass: 40
Soybean [9]; [23]
  Plant response rating, Soybean: 20
Soybean [9]; [24]
  Plant response rating, Soybean: 50
oat, wild [10]; [25]
  Plant response rating, Oat, Wild: 0
oat, wild [10]; [26]
  Plant response rating, Oat, Wild: 0
Ragweed [11]; [25]
  Plant response rating, Ragweed: 0
Ragweed [11]; [26]
  Plant response rating, Ragweed: 0
ryegrass, Italian [12]; [23]
  Plant response rating, Ryegrass, Italian: 0
ryegrass, Italian [12]; [24]
  Plant response rating, Ryegrass, Italian: 0
Corn [13]; [25]
  Plant response rating, Corn: 0
Corn [13]; [26]
  Plant response rating, Corn: 0
rice
  Plant response rating, Rice: 0
Ragweed [14]; [23]
  Plant response rating, Ragweed: 0
Ragweed [14]; [24]
  Plant response rating, Ragweed: 0
Goosegrass [15]; [25]
  Plant response rating, Goosegrass: 0
Goosegrass [15]; [26]
  Plant response rating, Goosegrass: 40
barnyardgrass
  Plant response rating, Barnyardgrass: 0
sedge, umbrella
  Plant response rating, Sedge, Umbrella: 0
Wheat [16]; [23]
  Plant response rating, Wheat: 0
Wheat [16]; [24]
  Plant response rating, Wheat: 0
pigweed, palmer [17]; [23]
  Plant response rating, Pigweed, Palmer: 0
pigweed, palmer [17]; [24]
  Plant response rating, Pigweed, Palmer: 30
Kochia [18]; [25]
  Plant response rating, Kochia: 0
Kochia [18]; [26]
  Plant response rating, Kochia: 20
foxtail, giant [19]; [25]
  Plant response rating, Foxtail, Giant: 0
foxtail, giant [19]; [26]
  Plant response rating, Foxtail, Giant: 0
Corn [20]; [23]
  Plant response rating, Corn: 0
Corn [20]; [24]
  Plant response rating, Corn: 0
Soybean [21]; [25]
  Plant response rating, Soybean: 0
Soybean [21]; [26]
  Plant response rating, Soybean: 0
Blackgrass [22]; [25]
  Plant response rating, Blackgrass: 0
Blackgrass [22]; [26]
  Plant response rating, Blackgrass: 0
horseweed; [23]
  Plant response rating, Horseweed: 0
horseweed; [24]
  Plant response rating, Horseweed: 0

## CCCc1ncn(-c2cccc(C(=O)N3C[C@H](C)Oc4c(C)cccc43)c2)n1 [Compound 72]
galium; [23]
  Plant response rating, Galium: 70
galium; [27]
  Plant response rating, Galium: 100
Blackgrass [1]; [23]
  Plant response rating, Blackgrass: 0
Blackgrass [1]; [24]
  Plant response rating, Blackgrass: 80
Kochia [2]; [23]
  Plant response rating, Kochia: 70
Kochia [2]; [27]
  Plant response rating, Kochia: 90
oat, wild [3]; [27]
  Plant response rating, Oat, Wild: 50
foxtail, giant [4]; [23]
  Plant response rating, Foxtail, Giant: 10
foxtail, giant [4]; [27]
  Plant response rating, Foxtail, Giant: 50
pigweed, palmer [5]; [25]
  Plant response rating, Pigweed, Palmer: 70
pigweed, palmer [5]; [26]
  Plant response rating, Pigweed, Palmer: 100
ryegrass, Italian [6]; [25]
  Plant response rating, Ryegrass, Italian: 100
ryegrass, Italian [6]; [26]
  Plant response rating, Ryegrass, Italian: 100
ducksalad
  Plant response rating, Ducksalad: 55
Wheat [7]; [25]
  Plant response rating, Wheat: 0
Wheat [7]; [26]
  Plant response rating, Wheat: 30
Goosegrass [8]; [23]
  Plant response rating, Goosegrass: 50
Goosegrass [8]; [27]
  Plant response rating, Goosegrass: 90
Soybean [9]; [27]
  Plant response rating, Soybean: 100
oat, wild [10]; [25]
  Plant response rating, Oat, Wild: 10
oat, wild [10]; [26]
  Plant response rating, Oat, Wild: 90
Ragweed [11]; [25]
  Plant response rating, Ragweed: 0
Ragweed [11]; [26]
  Plant response rating, Ragweed: 0
ryegrass, Italian [12]; [27]
  Plant response rating, Ryegrass, Italian: 70
Corn [13]; [25]
  Plant response rating, Corn: 30
Corn [13]; [26]
  Plant response rating, Corn: 50
rice
  Plant response rating, Rice: 0
Ragweed [14]; [27]
  Plant response rating, Ragweed: 50
Goosegrass [15]; [25]
  Plant response rating, Goosegrass: 90
Goosegrass [15]; [26]
  Plant response rating, Goosegrass: 100
barnyardgrass
  Plant response rating, Barnyardgrass: 15
sedge, umbrella
  Plant response rating, Sedge, Umbrella: 15
Wheat [16]; [27]
  Plant response rating, Wheat: 30
pigweed, palmer [17]; [27]
  Plant response rating, Pigweed, Palmer: 70
Kochia [18]; [25]
  Plant response rating, Kochia: 30
Kochia [18]; [26]
  Plant response rating, Kochia: 80
foxtail, giant [19]; [25]
  Plant response rating, Foxtail, Giant: 100
foxtail, giant [19]; [26]
  Plant response rating, Foxtail, Giant: 100
Corn [20]; [23]
  Plant response rating, Corn: 30
Corn [20]; [27]
  Plant response rating, Corn: 90
Soybean [21]; [25]
  Plant response rating, Soybean: 30
Soybean [21]; [26]
  Plant response rating, Soybean: 60
Blackgrass [22]; [25]
  Plant response rating, Blackgrass: 40
Blackgrass [22]; [26]
  Plant response rating, Blackgrass: 70
horseweed; [23]
  Plant response rating, Horseweed: 20
horseweed; [27]
  Plant response rating, Horseweed: 50
